“Also recorded” adds a separate entry of the source.
Experiments:
[1] = molecular target: T1, bovine β 1-AR (Bos taurus, UniProt Q9TT96); test: cAMP induction in CHO cells transfected with bovine β 1-AR construct (LANCE cAMP kit); assay type: cell-based; conditions: 45 min, 5 mM theophylline, ND = cAMP not detected or insufficient for EC50
T1 construct: expressed in transfected cells; host or cells: Chinese hamster ovary (CHO) cells, pcDNA3.1+ vector
Experimental: (§1) Chinese Hamster Overy cells were transfected with either the bovine β 1-, β 2-, or β 3-AR constructs in pcDNA3.1+. Expression of the β-AR was confirmed by polymerase chain reaction (PCR). Thereafter, cells were grown in DMEM/Ham’s F12 media with 10% FBS and 1% penicillin/streptomycin at 37 °C under 5% CO2. Opti-plates (Perkin Elmer, Waltham, MA) were used for all experiments. For each experiment, cells were plated into 96-well tissue culture plates at 60,000 cells per well in a volume of 100 µL media. Cells were grown for 48 hr after plating prior to ligand addition and determination of cAMP.
(§2) All samples and standards were tested in duplicate for each repetition, and 4 repetitions per cell line were performed for each potential ligand tested. Controls included no treatment (media alone), 5 mM theophylline alone (an inhibitor of phosphodiesterase), 0.1 % DMSO alone, and water alone. None of the controls differed from media alone and are thus not reported. A volume of media equal to the volume of test material to be added was removed from the well just prior to stimulation. Theophylline was added in a volume of 25 µL to obtain a final concentration of 5 mM and each test molecule was delivered in 10 µL. Cells were returned to 37 °C and allowed to incubate for 45 min before media was removed and the cells lysed in 38 µL lysis buffer A. The LANCE cAMP detection kit (AD0262E) was purchased from Perkin Elmer. The LANCE assay instructions were followed for a 40 µL reaction volume with 15 µL of cell lysate. The reaction was incubated for 20 hr prior to measuring fluorescence. A standard curve was generated with increasing concentrations of cAMP, and the linear portion of the curve was used to calculate sample cAMP concentrations.

[2] = molecular target: T2, bovine β 2-AR (Bos taurus, UniProt Q28044); test: cAMP induction in CHO cells transfected with bovine β 2-AR construct (LANCE cAMP kit); assay type: cell-based; conditions: 45 min, 5 mM theophylline, ND = cAMP not detected or insufficient for EC50
T2 construct: expressed in transfected cells; host or cells: Chinese hamster ovary (CHO) cells, pcDNA3.1+ vector
T2 sequence (Q28044 whole entry): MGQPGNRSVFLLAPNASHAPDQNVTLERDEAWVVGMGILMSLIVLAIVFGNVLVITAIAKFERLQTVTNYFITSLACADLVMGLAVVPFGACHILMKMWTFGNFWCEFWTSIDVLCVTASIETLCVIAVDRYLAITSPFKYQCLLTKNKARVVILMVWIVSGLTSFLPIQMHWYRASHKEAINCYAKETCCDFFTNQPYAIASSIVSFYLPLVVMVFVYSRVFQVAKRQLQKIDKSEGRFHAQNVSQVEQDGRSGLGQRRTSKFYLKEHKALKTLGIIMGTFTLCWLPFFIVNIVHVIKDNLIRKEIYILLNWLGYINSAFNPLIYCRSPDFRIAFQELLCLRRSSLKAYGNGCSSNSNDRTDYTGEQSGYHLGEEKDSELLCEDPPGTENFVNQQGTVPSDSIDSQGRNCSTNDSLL
Experimental: All samples and standards were tested in duplicate for each repetition, and 4 repetitions per cell line were performed for each potential ligand tested. Controls included no treatment (media alone), 5 mM theophylline alone (an inhibitor of phosphodiesterase), 0.1 % DMSO alone, and water alone. […] A volume of media equal to the volume of test material to be added was removed from the well just prior to stimulation. Theophylline was added in a volume of 25 µL to obtain a final concentration of 5 mM and each test molecule was delivered in 10 µL. […] The reaction was incubated for 20 hr prior to measuring fluorescence. […]

[3] = molecular target: T3, bovine β 3-AR (Bos taurus, UniProt P46626); test: cAMP induction in CHO cells transfected with bovine β 3-AR construct (LANCE cAMP kit); assay type: cell-based; conditions: 45 min, 5 mM theophylline
T3 construct: expressed in transfected cells; host or cells: Chinese hamster ovary (CHO) cells, pcDNA3.1+ vector
T3 sequence (P46626 whole entry): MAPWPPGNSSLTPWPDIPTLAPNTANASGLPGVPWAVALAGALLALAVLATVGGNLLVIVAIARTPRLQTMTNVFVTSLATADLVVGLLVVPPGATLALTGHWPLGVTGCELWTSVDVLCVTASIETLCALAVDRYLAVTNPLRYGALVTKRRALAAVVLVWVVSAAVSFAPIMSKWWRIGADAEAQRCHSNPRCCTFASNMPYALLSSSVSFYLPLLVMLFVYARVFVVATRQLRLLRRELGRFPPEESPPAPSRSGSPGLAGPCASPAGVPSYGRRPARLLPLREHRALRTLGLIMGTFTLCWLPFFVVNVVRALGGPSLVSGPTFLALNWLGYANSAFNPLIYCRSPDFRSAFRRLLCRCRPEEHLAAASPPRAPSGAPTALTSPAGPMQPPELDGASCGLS
Experimental: as §1, §2

[4] = system: bovine s.c. adipose tissue; test: cAMP in s.c. adipose tissue explants (Cyclic AMP XP Assay Kit); assay type: cell-based, bovine (Angus cross steers)
Experimental: (§3) Fresh s.c. adipose tissue was cut into small pieces (50 to 100 mg, actual weight recorded) and i.m. adipose tissue was dissected from the LM as described previously ([Smith and Crouse, 1984]; [Miller et al., 1988]) and weighed. The s.c. and i.m. adipose samples were incubated according to 3 different sets of experimental conditions. Experiment 1: Small pieces of s.c. and i.m. adipose tissues (50 to 100 mg; 1 to 2 mm thick; [Smith and Prior, 1981]) were preincubated in 6-well tissue culture plates in a CO2/O2 incubator (NuAire model 4750 CO2 incubator, Plymouth, MN) for 30 min at 37 °C, 5% CO2 in KHB plus 5 mM glucose, 10 mM HEPES, and 0.5 mM theophylline. […] Experiment 2: The s.c. and i.m. adipose samples were preincubated in KHB plus 5 mM glucose, 10 mM HEPES, and 0.5 mM theophylline in the presence or absence of either 10 µM L-748,337 (β 3-AR antagonist) or 50 µM PRO (β-AR pan-antagonist). […] After the 30 min preincubation, either DOB (β 1-AA) or SAL (β 2-AA) was added to the culture plate wells in a concentration-dependent manner (10^–9 to 10^–4 M) for an additional 30 min. For all experiments, there were at least 3 replicate wells per treatment condition. After a total of 1-hr incubation, the adipose samples were homogenized in 1 mL cell lysis buffer (Cell Signaling Technology, Danvers, MA) with 1 mM phenymethylsulfony fluoride, and centrifuged at 14,000 × g for 30 min to remove tissue debris. The supernatant fractions were stored at −80 °C until subsequent analyses were performed.
(§4) The concentration of cAMP was determined based on the principle of competitive binding using the Cyclic AMP XP Assay Kit according to the manufacturer’s instructions. Cytosolic extracts from the adipose explants were co-incubated at room temperature for 3 hr in 96-well plates with the HRP-linked cAMP substrate coated onto an immobilized rabbit monoclonal cAMP antibody using a horizontal orbital plate shaker. After the reaction, color development was measured at 450 nm using an Epoch microplate reader (Biotek Instruments, Winooski, VT). All samples were analyzed in duplicate. A standard curve and cAMP concentrations were calculated using GrapPad Prism 6.04 software (GraphPad Software Inc., San Diego, CA).

[5] = system: bovine i.m. adipose tissue; test: cAMP in i.m. adipose tissue explants (Cyclic AMP XP Assay Kit); assay type: cell-based, bovine (Angus cross steers)
Experimental: as §3, §4

[6] = system: bovine s.c. adipose tissue; test: Lipolysis: glycerol release, s.c. adipose tissue explants; assay type: cell-based, bovine (Angus cross steers); conditions: s.c. adipose tissue, 30 min
[7] = system: bovine i.m. adipose tissue; test: Lipolysis: glycerol release, i.m. adipose tissue explants; assay type: cell-based, bovine (Angus cross steers); conditions: i.m. adipose tissue, 30 min
[8] = system: bovine s.c. adipose tissue; test: Lipolysis: NEFA release, s.c. adipose tissue explants; assay type: cell-based, bovine (Angus cross steers); conditions: s.c. adipose tissue, 30 min
[9] = system: bovine i.m. adipose tissue; test: Lipolysis: NEFA release, i.m. adipose tissue explants; assay type: cell-based, bovine (Angus cross steers); conditions: i.m. adipose tissue, 30 min
[10] = system: bovine i.m. adipose tissue; test: cAMP in i.m. adipose tissue explants (Cyclic AMP XP Assay Kit); assay type: cell-based, bovine (Angus cross steers); remark: listed apart in the source
[11] = s.c., pretreatment 1 µM LUB alone or with 10 µM L-748,337, P < 0.05

T1 sequence (Q9TT96 whole entry): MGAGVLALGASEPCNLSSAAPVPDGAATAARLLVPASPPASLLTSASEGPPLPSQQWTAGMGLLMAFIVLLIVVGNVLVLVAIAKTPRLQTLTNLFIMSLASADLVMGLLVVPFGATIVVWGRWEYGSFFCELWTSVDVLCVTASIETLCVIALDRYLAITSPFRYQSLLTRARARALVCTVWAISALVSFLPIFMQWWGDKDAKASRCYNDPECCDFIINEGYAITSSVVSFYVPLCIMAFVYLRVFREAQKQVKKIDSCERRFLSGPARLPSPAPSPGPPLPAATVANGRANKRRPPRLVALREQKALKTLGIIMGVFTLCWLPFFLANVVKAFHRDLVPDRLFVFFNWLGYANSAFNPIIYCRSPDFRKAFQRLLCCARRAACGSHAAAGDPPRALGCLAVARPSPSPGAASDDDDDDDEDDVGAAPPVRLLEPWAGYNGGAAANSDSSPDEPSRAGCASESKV

SMILES: CC(C)(Cc1ccc(Oc2ncccc2C#N)cc1)NC[C@H](O)COc1ccccc1-c1cccs1.CC(C)(Cc1ccc(Oc2ncccc2C#N)cc1)NC[C@H](O)COc1ccccc1-c1cccs1.O=C(O)/C=C/C(=O)O [LUB, lubabegron fumarate]
- EC50 [1]: 190 nM
- Induction of cAMP (EC50), β 2-Construct [2]: no detectible agonistic activity
- EC50 [3]: 6 nM
- Effect on cAMP (in words) ([4]; s.c. adipose tissue, ligand alone, 30 min): Neither BRL-37344 nor LUB influenced cAMP or NEFA concentrations
- Effect of LUB on cAMP production in tissue pretreated with antagonist ([4]; s.c., 30 min preincubation with 10 µM L-748,337, then LUB 10^–9 to 10^–4 M): reduced by LUB in a dose–response manner
- Effect of LUB on cAMP production in tissue pretreated with antagonist ([4]; s.c., 30 min preincubation with 50 µM PRO, then LUB 10^–9 to 10^–4 M): reduced by LUB in a dose–response manner
- Adipose tissue lipolytic sensitivity (−logEC50) to β-AR ligands, s.c. ([4]; s.c., cAMP readout, mean ± SEM, n = 12 cattle, combinations: preincubation with 1 µM LUB ± 10 µM L-748,337): 7.40 ± 1.78^2
- Effect on the EC50 of the SAL cAMP response ([4]; s.c., pretreatment 1 µM LUB alone or with 10 µM L-748,337, P < 0.0001): significantly increased
- Effect on the maximal cAMP response to DOB [4, 11]: significantly diminished the maximal cAMP response
- Effect on the maximal cAMP response to SAL [4, 11]: attenuated the maximal cAMP response
- Effect on the EC50 of the cAMP response to DOB ([4]; s.c., pretreatment 1 µM LUB alone or with 10 µM L-748,337, P > 0.05): not a significant change
- Effect of LUB pretreatment on cAMP with DOB or SAL ([5]; i.m. adipose explants, 1 µM LUB): without effect
- Adipose tissue lipolytic sensitivity (−logEC50) to β-AR ligands, i.m. ([5]; i.m., cAMP readout, mean ± SEM, n = 12 cattle, combinations: preincubation with 1 µM LUB ± 10 µM L-748,337, N.A. = not possible to calculate EC50): not demonstrable
- Effect on glycerol release (in words) [6]: did not affect
- Effect on glycerol release (in words) [7]: did not affect
- Effect on NEFA release (in words) [8]: did not affect; also recorded: Neither BRL-37344 nor LUB influenced cAMP or NEFA concentrations
- Effect on NEFA release (in words) [9]: did not affect; also recorded: not influenced
- Effect of LUB on cAMP production in tissue pretreated with antagonist ([10]; 30 min preincubation with 10 µM L-748,337, then LUB): depressed cAMP production
- Effect of LUB on cAMP production in tissue pretreated with antagonist ([10]; 30 min preincubation with 50 µM PRO, then LUB): no effect

From PMC8326056 (Journal of Animal Science, 2021)
